Results published in ChEMBL document CHEMBL1208717, “Antimalarial 3-arylamino-6-benzylamino-1,2,4,5-tetrazines” (Bioorg Med Chem Lett, 2010).
pEC50, pIC50: −log10 of the molar value. Values joined by “and” are separate entries in the source; they are usually repeats but may differ in a detail not shown here. Identical values can stand only once. Each block holds one compound with its values, some of them ahead of it.

Legend:
Plasmodium falciparum [1] = test: Antimalarial activity against erythrocytic stage of Plasmodium falciparum 3D7 at 38 uM; type: functional, organism-based
[2] = Cytotoxicity against human HEK cells at 38 uM; type: cell-based; conditions: hek293, 38 µM
Plasmodium falciparum [3] = test: Antimalarial activity against erythrocytic stage of Plasmodium falciparum 3D7; type: functional, organism-based
Plasmodium falciparum [4] = test: Antimalarial activity against erythrocytic stage of chloroquine-resistant Plasmodium falciparum Dd2; type: functional, organism-based; conditions: for pEC50: Plasmodium falciparum, Dd2, read-out: EC50
[5] = Cytotoxicity against human HEK cells; type: cell-based; conditions: HEK293
Leishmania infantum = test: Antileishmanial activity against amastigote stage of Leishmania infantum; type: functional, organism-based
Trypanosoma cruzi = test: Antitrypanosomal activity against amastigote stage of Trypanosoma cruzi Tulahuen C2C4; type: functional, organism-based; conditions: Tulahaen C2C4
[6] = tested on: Trypanosoma brucei rhodesiense; test: Antitrypanosomal activity against bloodstream form of Trypanosoma brucei rhodesiense STIB 900; type: functional, organism-based
L6 = test: Cytotoxicity against rat L6 cells; type: cell-based
[7] = Cytotoxicity against human HEK cells at 29 uM; type: cell-based; conditions: hek293, 29 µM
Plasmodium falciparum [8] = test: Antimalarial activity against erythrocytic stage of Plasmodium falciparum 3D7 at 115 uM; type: functional, organism-based
[9] = Cytotoxicity against human HEK cells at 115 uM; type: cell-based; conditions: hek293, 115 µM
Plasmodium falciparum [10] = test: Antimalarial activity against erythrocytic stage of chloroquine-resistant Plasmodium falciparum Dd2 at 115 uM; type: functional

EC50 (Plasmodium falciparum [1]): Not Active
SMILES: CC(Nc1nnc(Nc2ccc(Cl)cc2)nn1)c1ccccc1 (configuration not stated)
Activity [2]: Non-toxic

SMILES: CN(C)CCOc1cccc(CNc2nnc(Nc3ccc(Cl)cc3)nn2)c1
pEC50 (Plasmodium falciparum [3]; Plasmodium falciparum, 3D7): 5.30
EC50 (Plasmodium falciparum [4]): 6 µM
pIC50 [5]: 4.68

SMILES: Clc1ccc(Nc2nnc(NCc3ccccc3)nn2)cc1
pEC50 (Plasmodium falciparum [3]): 6.36 and 5.96
pEC50 (Leishmania infantum): 4.80
pEC50 (Trypanosoma cruzi): 4.82
pEC50 [6]: < 4.49
pIC50 (L6): < 4.49
pEC50 (Plasmodium falciparum [4]): 5.96
Activity [7]: 58%

EC50 (Plasmodium falciparum [8]): Not Active
SMILES: CNc1nnc(NCc2ccccc2)nn1
Activity [9]: Non-toxic

SMILES: CN(C)CCOc1cccc(Nc2nnc(NCc3ccccc3)nn2)c1
pEC50 (Plasmodium falciparum [3]; Plasmodium falciparum, 3D7): 4.82
pEC50 (Plasmodium falciparum [4]): 4.89
Activity [2]: 52%

SMILES: Clc1ccc(Nc2nnc(NCCc3ccccc3)nn2)cc1
Activity (Plasmodium falciparum [8]): 85%
Activity (Plasmodium falciparum [10]): 88%
Activity [9]: Non-toxic

EC50 (Plasmodium falciparum [8]): Not Active
SMILES: c1ccc(CNc2nnc(Nc3ccccc3)nn2)cc1
Activity [9]: Non-toxic

EC50 (Plasmodium falciparum [8]): Not Active
SMILES: CCCCNc1nnc(NCc2ccccc2)nn1
Activity [9]: Non-toxic

SMILES: CN(c1ccc(Cl)cc1)c1nnc(NCc2ccccc2)nn1
pEC50 (Plasmodium falciparum [3]; Plasmodium falciparum, 3D7): 5.62
pEC50 (Plasmodium falciparum [4]): 5.46
pIC50 [5]: 4.92

pEC50 (Plasmodium falciparum [3]; Plasmodium falciparum, 3D7): 6.74
pEC50 (Leishmania infantum): 5.07
pEC50 (Trypanosoma cruzi): 4.80
pEC50 [6]: 5.24
SMILES: COc1nncc(-c2cnnc(SC)n2)n1
pIC50 (L6): 4.48

EC50 (Plasmodium falciparum [8]): Not Active
SMILES: CN(C)CCN(Cc1ccccc1)c1nnc(N(CCN(C)C)c2ccc(Cl)cc2)nn1
Activity [9]: Non-toxic

SMILES: CN(C)CCN(c1ccc(Cl)cc1)c1nnc(NCc2ccccc2)nn1
pEC50 (Plasmodium falciparum [3]; Plasmodium falciparum, 3D7): 4.89
pEC50 (Plasmodium falciparum [4]): 4.70
pIC50 [5]: 4.42
